≈ marks a conversion by molar mass, not a printed value. Non-standard residues stand in square brackets, D forms with d. Residues, ends and D or L forms follow the SMILES beside them. Phe(3,4-F2) = N[C@@H](Cc1ccc(F)c(F)c1)C(=O)O; 2Nal = N[C@@H](Cc1ccc2ccccc2c1)C(=O)O
What was measured:
rabbit red blood cells = type: cell-based; conditions: red cells of rabbit, 1 h
Procedure: Fresh rabbit blood ([…]) was collected and centrifuged at 500 g for 5 min, a supernatant was discarded, and red blood cells were repeatedly washed with phosphate-buffered saline (PBS, 0.01 M, pH 7.4) until the supernatant was clear. The red blood cells (RBCs) were resuspended to 10 mL, and diluted 25-fold with PBS (0.01 M, pH 7.4) to prepare a red blood cell suspension with a concentration of about 2×10^8 RBC/mL. The AMPs were subjected to gradient dilution with normal saline (0.85%, w/v, NaCl) according to a multiple dilution method, final concentrations of the SMPs were 1.95, 3.9, 7.8, 15.6, 31.3, 62.5, 125, 250, 500, 1000, and 2000 μg/mL. 100 μl of polypeptide solution was taken and added to a 96-well plate with 5 replicates for each concentration; 100 μl of rabbit blood with a red blood cell count of about 2×10^8 RBC/mL was then added to each well, the plate was incubated at 37° C. for 1 h, centrifuged at 500 g for 5 min, 100 μl of supernatant was taken and transferred to a new 96-well plate, and an optical density (OD) at a wavelength of 541 nm was measured using a microplate reader. Triton X-100 (10 mg/mL as a starting concentration, two-fold gradient dilution) was used as a positive control group. A hemolysis rate was calculated using the following formula: Hemolysis rate (%)=[(OD541 of experimental group-OD541 of negative control group)/(OD541 of positive control group−OD541 of negative control group)]×100% Specific results of the hemolysis test are shown in Table 6. Minimum hemolytic concentration (MHC): a lowest drug concentration that can cause 10% hemolysis.

[1] = system: Staphylococcus aureus (NRS 384); experiment: microbe, parasite or virus in culture; type: cell-based
Excerpt: According to the Standards of Clinical and Laboratory Standards Institute (CLSI) of the USA for antimicrobial drug susceptibility test operation standards, a micronutrient serial twofold dilution method was used to determine minimum inhibitory concentrations (MICs) of all 60 peptides (S/N: LV-1˜LV-60) against Staphylococcus aureus (NRS 384). The experiment was repeated 5 times in parallel. […] An antibacterial drug Levofloxacin and an AMP Cbf-K16 (sequence of Cbf-K16: […]) were used as positive controls to evaluate the antibacterial effect of the antimicrobial peptides on Staphylococcus aureus (NRS 384).

[2] = system: Methicillin-sensitive Staphylococcus aureus (NRS 384); type: in vivo, ICR mice; conditions: topical formulation 1 mg/mL, 0.1 mL twice a day for 4 days, mouse back skin infection
Procedure: (§1) Both female and male ICR mice were used in the test, half of the female and male mice were taken and randomly assigned into groups, with 10 mice in each group, and kept in separate cages. The mice were divided into a blank group, a model group, a positive control Methicillin group, and topical formulation groups of AMPs LV-1 to LV-30. Suspensions of Methicillin-sensitive Staphylococcus aureus (NRS 384) and Methicillin-resistant Staphylococcus aureus (MRSA) were prepared, and their concentrations were adjusted to a concentration of 5×10^6 CFU/mL for subsequent use. Hair on backs of the mice was shaved with a shaver, wound was created on back skin of each mouse using a biopsy punch, and the wound was then infected with Methicillin-sensitive Staphylococcus aureus and Methicillin-resistant Staphylococcus aureus (0.1 mL, 5×10^6 CFU/mL) to establish infection models. Except for the blank group and the model group, all other groups received corresponding topical formulations applied directly to the infected areas, with a dose of 0.1 mL, twice a day for 4 consecutive days. On the day following the final administration, skin from the infected sites of each group was aseptically collected, and an antibacterial rate was calculated.

[3] = system: Methicillin-resistant Staphylococcus aureus (MRSA); type: in vivo, ICR mice; conditions: topical formulation 1 mg/mL, 0.1 mL twice a day for 4 days, mouse back skin infection
Procedure: as §1

[4] = system: Staphylococcus aureus (NRS 384); conditions: 37° C., 3 h
Procedure: Trypsin (250 U/mg, pH=8.0) and AMPs (LV-1 to LV-30) were mixed in a ratio of 1:10 (w/w) and added to a reaction buffer (0.2 M sodium phosphate, 1 mM CaCl2), pH 7.5), and then incubated at 37° C. for 3 h.

MIC against Staphylococcus aureus (NRS 384) ([1]; NRS 384) [µg/mL]	Molecule	MHC (minimum hemolytic concentration, lowest concentration causing 10% hemolysis) (rabbit red blood cells) [µg/mL]	further results
8 (≈ 4.78 µM)	CC(=O)N[C@@H](CCCNC(=N)N)C(=O)N[C@@H](CCCCN)C(=O)N[C@@H](CC(C)C)C(=O)N[C@@H](CC(C)C)C(=O)N[C@@H](Cc1ccc2ccccc2c1)C(=O)N[C@@H](CCCNC(=N)N)C(=O)N[C@@H](CC(C)C)C(=O)N[C@@H](CCCCN)C(=O)N[C@@H](Cc1ccc2ccccc2c1)C(=O)N[C@@H](CCCNC(=N)N)C(=O)N[C@@H](CCCNC(=N)N)C(N)=O [LV-52] (Ac-RKLL[2Nal]RLK[2Nal]RR-NH2)	>1000	–
4 (≈ 2.47 µM)	CC(=O)N[C@@H](CCCCN)C(=O)N[C@@H](CCCNC(=N)N)C(=O)N[C@@H](CC(C)C)C(=O)N[C@@H](CC(C)C)C(=O)N[C@@H](Cc1ccc2ccccc2c1)C(=O)N[C@@H](CCCCN)C(=O)N[C@@H](CC(C)C)C(=O)N[C@@H](CCCCN)C(=O)N[C@@H](Cc1ccc2ccccc2c1)C(=O)N[C@@H](CCCCN)C(=O)N[C@@H](CCCNC(=N)N)C(N)=O [LV-53] (Ac-KRLL[2Nal]KLK[2Nal]KR-NH2)	>1000	–
8 (≈ 4.86 µM)	CC(=O)N[C@@H](CCCNC(=N)N)C(=O)N[C@@H](CCCNC(=N)N)C(=O)N[C@@H](CC(C)C)C(=O)N[C@@H](CC(C)C)C(=O)N[C@@H](Cc1ccc2ccccc2c1)C(=O)N[C@@H](CCCCN)C(=O)N[C@@H](CC(C)C)C(=O)N[C@@H](CCCCN)C(=O)N[C@@H](Cc1ccc2ccccc2c1)C(=O)N[C@@H](CCCCN)C(=O)N[C@@H](CCCNC(=N)N)C(N)=O [LV-54] (Ac-RRLL[2Nal]KLK[2Nal]KR-NH2)	>1000	–
4 (≈ 2.52 µM)	CC(=O)N[C@@H](CCCCN)C(=O)N[C@@H](CCCCN)C(=O)N[C@@H](CC(C)C)C(=O)N[C@@H](CC(C)C)C(=O)N[C@@H](Cc1ccc(F)c(F)c1)C(=O)N[C@@H](CCCNC(=N)N)C(=O)N[C@@H](CC(C)C)C(=O)N[C@@H](CCCCN)C(=O)N[C@@H](Cc1ccc(F)c(F)c1)C(=O)N[C@@H](CCCNC(=N)N)C(=O)N[C@@H](CCCCN)C(N)=O [LV-55] (Ac-KKLL[Phe(3,4-F2)]RLK[Phe(3,4-F2)]RK-NH2)	>1000	–

The next lines start with the molecule.

Molecule	MIC against Staphylococcus aureus (NRS 384) ([1]; NRS 384) [µg/mL]	MHC (minimum hemolytic concentration, lowest concentration causing 10% hemolysis) (rabbit red blood cells) [µg/mL]	further results
CC(=O)N[C@@H](CCCCN)C(=O)N[C@@H](CCCCN)C(=O)N[C@@H](CC(C)C)C(=O)N[C@@H](CC(C)C)C(=O)N[C@@H](Cc1ccc2ccccc2c1)C(=O)N[C@@H](CCCCN)C(=O)N[C@@H](CC(C)C)C(=O)N[C@@H](CCCCN)C(=O)N[C@@H](Cc1ccc2ccccc2c1)C(=O)N[C@@H](CCCCN)C(=O)N[C@@H](CCCCN)C(N)=O [LV-47] (Ac-KKLL[2Nal]KLK[2Nal]KK-NH2)	2 (≈ 1.28 µM)	>1000	–
CC(=O)N[C@@H](CCCNC(=N)N)C(=O)N[C@@H](CCCCN)C(=O)N[C@@H](CC(C)C)C(=O)N[C@@H](CC(C)C)C(=O)N[C@@H](Cc1ccc2ccccc2c1)C(=O)N[C@@H](CCCCN)C(=O)N[C@@H](CC(C)C)C(=O)N[C@@H](CCCCN)C(=O)N[C@@H](Cc1ccc2ccccc2c1)C(=O)N[C@@H](CCCCN)C(=O)N[C@@H](CCCNC(=N)N)C(N)=O [LV-48] (Ac-RKLL[2Nal]KLK[2Nal]KR-NH2)	4 (≈ 2.47 µM)	>1000	–
CC(=O)N[C@@H](CCCCN)C(=O)N[C@@H](CCCCN)C(=O)N[C@@H](CC(C)C)C(=O)N[C@@H](CC(C)C)C(=O)N[C@@H](Cc1ccc2ccccc2c1)C(=O)N[C@@H](CCCNC(=N)N)C(=O)N[C@@H](CC(C)C)C(=O)N[C@@H](CCCCN)C(=O)N[C@@H](Cc1ccc2ccccc2c1)C(=O)N[C@@H](CCCNC(=N)N)C(=O)N[C@@H](CCCCN)C(N)=O [LV-49] (Ac-KKLL[2Nal]RLK[2Nal]RK-NH2)	8 (≈ 4.94 µM)	>1000	–
CC(=O)N[C@@H](CCCNC(=N)N)C(=O)N[C@@H](CCCCN)C(=O)N[C@@H](CC(C)C)C(=O)N[C@@H](CC(C)C)C(=O)N[C@@H](Cc1ccc2ccccc2c1)C(=O)N[C@@H](CCCNC(=N)N)C(=O)N[C@@H](CC(C)C)C(=O)N[C@@H](CCCCN)C(=O)N[C@@H](Cc1ccc2ccccc2c1)C(=O)N[C@@H](CCCNC(=N)N)C(=O)N[C@@H](CCCCN)C(N)=O [LV-50] (Ac-RKLL[2Nal]RLK[2Nal]RK-NH2)	4 (≈ 2.43 µM)	>1000	–
CC(=O)N[C@@H](CCCNC(=N)N)C(=O)N[C@@H](CCCNC(=N)N)C(=O)N[C@@H](CC(C)C)C(=O)N[C@@H](CC(C)C)C(=O)N[C@@H](Cc1ccc2ccccc2c1)C(=O)N[C@@H](CCCNC(=N)N)C(=O)N[C@@H](CC(C)C)C(=O)N[C@@H](CCCCN)C(=O)N[C@@H](Cc1ccc2ccccc2c1)C(=O)N[C@@H](CCCNC(=N)N)C(=O)N[C@@H](CCCCN)C(N)=O [LV-51] (Ac-RRLL[2Nal]RLK[2Nal]RK-NH2)	4 (≈ 2.39 µM)	>1000	–
COc1cccc(OC)c1C(=O)N[C@@H]1C(=O)N2[C@@H]1SC(C)(C)[C@@H]2C(=O)O [Methicillin, reference compound]	–	–	Inhibition rate against Methicillin-sensitive Staphylococcus aureus (%) [2]: 84.83%; Inhibition rate against Methicillin-resistant Staphylococcus aureus (%) [3]: 1.05%
Ac-RKLLFRLKFRK-NH2 [LV-32]	4	>1000	–
KFFRKLKKSVKKRAKKFFKKPRVIGVSIPF [Cbf-K16, reference compound]	–	–	Trypsin MIC ([4]; MIC vs Staphylococcus aureus (NRS 384) after trypsin treatment 1:10 (w/w)): >128 µg/mL; MIC values after trypsin treatment ([4]; trypsin:AMP 1:10 (w/w), Staphylococcus aureus (NRS 384)): lost its antimicrobial activity; MIC against Staphylococcus aureus (NRS 384) ([1]; Staphylococcus aureus (NRS 384)): 32 µg/mL

— US20250304620A1, “ANTIMICROBIAL PEPTIDE AND APPLICATION THEREOF” (priority 2023, published 2025)
